Test results published in US9334246B2, “Substituted triazines for malaria treatment and chemoprophylaxis” (The United States of America, as represented by the …, priority 2013, dated 2016).

Legend:
P. falciparum D6 = assay: Malaria SYBR Green Fluorescence Assay, D6 strain; format: cell-based, Plasmodium falciparum; details: SYBR Green Assay
P. falciparum W2 = assay: Malaria SYBR Green Fluorescence Assay, W2 strain; format: cell-based, Plasmodium falciparum; details: SYBR Green Assay
P. falciparum C235 = assay: Malaria SYBR Green Fluorescence Assay, C235 strain; format: cell-based, Plasmodium falciparum; details: SYBR Green Assay
[1] = target: hERG potassium ion channel (Homo sapiens, UniProt Q12809); assay: hERG patch clamp assay (% inhibition at 10 μM)
Chain of hERG potassium ion channel (Q12809 whole entry): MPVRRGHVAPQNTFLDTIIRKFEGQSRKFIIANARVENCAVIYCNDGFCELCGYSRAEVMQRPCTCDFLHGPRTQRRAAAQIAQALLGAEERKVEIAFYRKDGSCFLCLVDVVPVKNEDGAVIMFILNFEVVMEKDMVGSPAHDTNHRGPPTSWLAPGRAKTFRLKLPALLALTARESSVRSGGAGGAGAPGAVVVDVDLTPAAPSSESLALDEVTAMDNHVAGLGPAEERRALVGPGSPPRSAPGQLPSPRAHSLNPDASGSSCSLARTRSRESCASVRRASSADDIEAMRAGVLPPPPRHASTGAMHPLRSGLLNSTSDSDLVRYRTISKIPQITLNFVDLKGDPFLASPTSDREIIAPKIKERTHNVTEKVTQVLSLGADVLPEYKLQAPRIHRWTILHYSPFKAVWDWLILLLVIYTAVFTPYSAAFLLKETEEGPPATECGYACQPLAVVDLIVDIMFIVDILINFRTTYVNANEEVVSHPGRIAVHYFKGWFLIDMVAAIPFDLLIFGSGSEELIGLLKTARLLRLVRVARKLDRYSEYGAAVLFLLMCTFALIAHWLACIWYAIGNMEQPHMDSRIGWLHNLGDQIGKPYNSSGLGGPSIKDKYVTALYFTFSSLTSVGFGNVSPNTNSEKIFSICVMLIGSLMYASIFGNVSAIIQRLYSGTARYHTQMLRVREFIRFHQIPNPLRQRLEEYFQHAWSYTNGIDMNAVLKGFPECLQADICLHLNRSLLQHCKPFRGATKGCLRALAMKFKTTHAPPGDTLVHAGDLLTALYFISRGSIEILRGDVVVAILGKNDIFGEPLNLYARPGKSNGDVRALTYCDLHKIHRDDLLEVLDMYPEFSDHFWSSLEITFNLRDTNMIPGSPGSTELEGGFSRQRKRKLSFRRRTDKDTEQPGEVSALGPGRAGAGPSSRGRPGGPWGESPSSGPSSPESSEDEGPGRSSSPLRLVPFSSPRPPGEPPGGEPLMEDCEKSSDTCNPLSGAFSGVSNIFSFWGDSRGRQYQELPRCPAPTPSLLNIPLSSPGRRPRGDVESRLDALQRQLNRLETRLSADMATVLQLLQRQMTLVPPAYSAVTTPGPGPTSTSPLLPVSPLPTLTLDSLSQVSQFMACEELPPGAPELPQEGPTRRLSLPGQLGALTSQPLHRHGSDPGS

[2] = % inhibition at 10 μM, patch clamp

Row | Compound | D6 (P. falciparum D6) | W2 (P. falciparum W2) | C235 (P. falciparum C235) | hERG ([1]; hERG activity as % inhibition) | hERG [1, 2]
1 | 3-(4-((3-(dimethylamino)propyl)amino)-6-(trichloromethyl)-1,3,5-triazin-2-yl)benzoic acid [Example 11] | 588 ng/mL | 475 ng/mL | 592 ng/mL | 15% | 
2 | 4-(4-(((1-ethylpiperidin-4-yl)methyl)amino)-6-(trichloromethyl)-1,3,5-triazin-2-yl)benzoic acid [Example 12] | 5 ng/mL | 11 ng/mL | 4 ng/mL | 39% | 
3 | 4-((4-((pyridin-2-ylmethyl)amino)-6-(trichloromethyl)-1,3,5-triazin-2-yl)amino)phenol [Example 14] | 37 ng/mL | 24 ng/mL | 36 ng/mL |  | 11%
4 | CN(C)C1CCN(c2nc(-c3ccc(Cl)c(Cl)c3)nc(C(Cl)(Cl)Cl)n2)C1 (centres unmarked) [Cmpd 20] |  |  |  |  | 50%
5 | CN1CCN(c2nc(-c3ccc(Cl)c(Cl)c3)nc(C(Cl)(Cl)Cl)n2)CC1 [Cmpd 22] |  |  |  |  | 33%
6 | Clc1ccc(-c2nc(N3CCNCC3)nc(C(Cl)(Cl)Cl)n2)cc1Cl [Cmpd 25] |  |  |  |  | 10%
7 | CN1CCN(c2nc(-c3ccc(Cl)cc3)nc(C(Cl)(Cl)Cl)n2)CC1 [Cmpd 29] | 307 ng/mL | 173 ng/mL | 351 ng/mL |  | 5%
8 | Clc1ccc(-c2nc(N3CCOCC3)nc(C(Cl)(Cl)Cl)n2)cc1 [Cmpd 31] |  |  |  |  | 12%
9 | CC(C)(C)c1ccc(-c2nc(NCCCN3CCCC3)nc(C(Cl)(Cl)Cl)n2)cc1 [Cmpd 34] | 152 ng/mL | 141 ng/mL | 152 ng/mL |  | 80.9%
10 | ClC(Cl)(Cl)c1nc(NCCN2CCCC2)nc(-c2ccc(OCc3ccccc3)cc2)n1 [Cmpd 35] | 194 ng/mL | 125 ng/mL | 186 ng/mL |  | 56%
11 | CS(=O)(=O)c1ccc(-c2nc(NCCN3CCCC3)nc(C(Cl)(Cl)Cl)n2)cc1 [Cmpd 39] | 85 ng/mL | 45 ng/mL | 92 ng/mL |  | 90%
12 | CSc1ccc(-c2nc(NCCC3CCCN3C)nc(C(Cl)(Cl)Cl)n2)cc1 (centres unmarked) [Cmpd 45] | 43 ng/mL | 91 ng/mL | 74 ng/mL |  | 38%
13 | CSc1ccc(-c2nc(NCCN3CCCC3)nc(C(Cl)(Cl)Cl)n2)cc1 [Cmpd 47] |  |  |  |  | 95%
14 | CCN(CC)CCNc1nc(Cc2ccc(OC)cc2)nc(C(Cl)(Cl)Cl)n1 [Cmpd 59] | 290 ng/mL | 153 ng/mL | 288 ng/mL |  | 100%
15 | CN1CCCC1CCNc1nc(Nc2ccccc2N2CCOCC2)nc(C(Cl)(Cl)Cl)n1 (centres unmarked) [Cmpd 64] | 140 ng/mL | 75 ng/mL | 121 ng/mL |  | 100%
16 | COc1ccccc1Nc1nc(N2CCN(C)CC2)nc(C(Cl)(Cl)Cl)n1 [Cmpd 65] | 32 ng/mL | 32 ng/mL | 31 ng/mL |  | 83%
17 | CCN(CC)CCNc1nc(Cc2ccccc2OC)nc(C(Cl)(Cl)Cl)n1 [Cmpd 70] | 6 ng/mL | 6 ng/mL | 6 ng/mL |  | 100%
18 | CN1CCC(Nc2nc(-c3ccc(S(C)(=O)=O)cc3)nc(C(Cl)(Cl)Cl)n2)CC1 [Cmpd 77] | 92 ng/mL | 53 ng/mL | 131 ng/mL |  | 72%
19 | CCN1CCCC(Nc2nc(-c3ccc(C)cc3)nc(C(Cl)(Cl)Cl)n2)C1 (centres unmarked) [Cmpd 80] | 135 ng/mL | 90 ng/mL | 129 ng/mL |  | 97%
20 | COc1ccc(Cc2nc(NCCN3CCCC3C)nc(C(Cl)(Cl)Cl)n2)cc1 (centres unmarked) [Cmpd 89] | 805 ng/mL | 718 ng/mL | 991 ng/mL |  | 50%
21 | CN1CCCC1CCNc1nc(-c2ccc(Cl)cc2)nc(C(Cl)(Cl)Cl)n1 (centres unmarked) [Cmpd 91] | 31 ng/mL | 19 ng/mL | 32 ng/mL |  | 79%
22 | Cc1ccccc1-c1nc(NCCN2CCCC2)nc(C(Cl)(Cl)Cl)n1 [Cmpd 121] | 70 ng/mL | 42 ng/mL | 84 ng/mL |  | 103%
23 | COc1ccc(-c2nc(NCc3ccncc3)nc(C(Cl)(Cl)Cl)n2)cc1 [Cmpd 130] | 12 ng/mL | 5 ng/mL | 24 ng/mL |  | 20%
